From US12673944B2, “Compounds having inhibitory activity against glucosylceramide synthase or pharmaceutically acceptable salt thereof, processes for preparing the same, and pharmaceutical compositions comprising the same” (YUHAN CORPORATION, priority 2019, dated 2026)

How the values were obtained:
[1] = target: T1, glucosylceramide synthase (GCS) (Homo sapiens, UniProt Q16739); test: GCS enzyme inhibition assay (A549 cell lysate, NBD C6-ceramide, HPLC fluorescence); format: biochemical; conditions: inhibitory activity against GCS, 37° C., 90 minutes
T1 construct: The obtained supernatant was used; host or cells: A549 cells (lysate supernatant after sonication)
T1 sequence (Q16739 1-394): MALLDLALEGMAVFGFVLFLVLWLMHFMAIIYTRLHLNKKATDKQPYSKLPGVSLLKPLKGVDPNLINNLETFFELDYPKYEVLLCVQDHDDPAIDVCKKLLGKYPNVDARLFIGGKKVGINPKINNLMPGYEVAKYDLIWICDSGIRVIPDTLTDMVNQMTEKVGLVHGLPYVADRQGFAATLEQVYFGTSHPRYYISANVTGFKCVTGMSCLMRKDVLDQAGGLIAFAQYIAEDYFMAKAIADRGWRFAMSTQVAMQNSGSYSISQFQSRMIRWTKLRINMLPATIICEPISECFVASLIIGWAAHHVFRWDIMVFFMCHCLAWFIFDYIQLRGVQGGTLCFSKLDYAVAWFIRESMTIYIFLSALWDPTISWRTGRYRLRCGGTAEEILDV
Method: Ibiglustat, known as a GCS inhibitor, was used as a control.
After the cells attached to the culture dish were washed with phosphate buffered saline (PBS), the cells were scraped off with a cell scraper and then centrifuged (4000 rpm, 3 min, 4° C.) to collect the cells in a 50 ml tube. The cell pellets were suspended in a lysis buffer (50 mM HEPES, pH 7.3, containing 1× the protease/phosphatase inhibitor cocktail), lysed by sonication, and then the lysate was centrifuged (13000 rpm, 10 min, 4° C.). The obtained supernatant was used for the quantitative analysis of proteins. The amount of proteins was measured using the BCA protein assay kit, using bovine serum albumin as a standard.
Enzymatic reactions were initiated by sequentially adding the following reaction materials to a 96 deep-well plate. Thereafter, the enzymatic reactions were performed at 37° C. for 90 minutes.
The enzymatic reactions were stopped by adding 100 μl of chloroform/methanol (2:1, v/v). After vortexing for 15 seconds, each mixture was centrifuged (4000 rpm, 10 min, 18° C.). The lower layer (50 μl) was transferred to a new 96 deep-well plate and dried with a reduced concentrator.
Data analysis was performed by the following equations. % Area(Sample)=Area(GlcCer)/[Area(Cer)+Area(GlcCer)]×100 % GCS activity=[Area(Sample)−Area(ibiglustat)]/[Area(DMSO)−Area(ibiglustat)]×100

[2] = test system: GM1 production in Jurkat cells; test: cells; format: cell-based; conditions: Homo sapiens, Jurkat, 72 h

Row | SMILES | IC50 [1] | IC50 [2]
1 | O=C(NC1CCOc2cc(-c3ccsc3)ccc21)O[C@@H]1CN2CCC1CC2 (stereo partly drawn) [Example 64, (S)-quinuclidin-3-yl (7-(thiophen-3-yl)chroman-4-yl)carbamate] | 1.32 nM | 19.2 nM
2 | COc1ccc(Cl)c(-c2ccc3c(c2)OCCC3NC(=O)O[C@@H]2CN3CCC2CC3)c1 (stereo partly drawn) [Example 65, (S)-quinuclidin-3-yl (7-(2-chloro-5-methoxyphenyl)chroman-4-yl)carbamate] | 0.22 nM | 1.18 nM
3 | COc1cc(-c2ccc3c(c2)OCCC3NC(=O)O[C@@H]2CN3CCC2CC3)ccc1Cl (stereo partly drawn) [Example 66, (S)-quinuclidin-3-yl (7-(4-chloro-3-methoxyphenyl)chroman-4-yl)carbamate] | 1.75 nM | 11.3 nM
4 | COc1cccc(-c2ccc3c(c2)OCCC3NC(=O)O[C@@H]2CN3CCC2CC3)c1Cl (stereo partly drawn) [Example 67, (S)-quinuclidin-3-yl (7-(2-chloro-3-methoxyphenyl)chroman-4-yl)carbamate] | 0.93 nM | 11.3 nM
5 | COc1cc(-c2ccc3c(c2)OCCC3NC(=O)O[C@@H]2CN3CCC2CC3)ccn1 (stereo partly drawn) [Example 68, (S)-quinuclidin-3-yl (7-(2-methoxypyridin-4-yl)chroman-4-yl)carbamate] | 3.65 nM | 28.3 nM
6 | CN(C)c1cc(-c2ccc3c(c2)OCCC3NC(=O)O[C@@H]2CN3CCC2CC3)ccc1F (stereo partly drawn) [Example 69, (S)-quinuclidin-3-yl (7-(3-(dimethylamino)-4-fluorophenyl)chroman-4-yl)carbamate] | 1.91 nM | 8.93 nM
7 | O=C(NC1CCOc2cc(-c3ccc4c(c3)CCCO4)ccc21)O[C@@H]1CN2CCC1CC2 (stereo partly drawn) [Example 70, (S)-quinuclidin-3-yl [6,7′-bichroman]-4′-ylcarbamate] | 0.59 nM | 5.78 nM
8 | COc1ncc(-c2ccc3c(c2)OCCC3NC(=O)O[C@@H]2CN3CCC2CC3)cc1C(F)(F)F (stereo partly drawn) [Example 71, (S)-quinuclidin-3-yl (7-(6-methoxy-5-(trifluoromethyl)pyridin-3-yl)chroman-4-yl)carbamate] | 5.3 nM | 38.8 nM
9 | O=C(NC1CCOc2cc(-c3cnn(Cc4ccccc4)c3)ccc21)O[C@@H]1CN2CCC1CC2 (stereo partly drawn) [Example 72, (S)-quinuclidin-3-yl (7-(1-benzyl-1H-pyrazol-4-yl)chroman-4-yl)carbamate] | 0.92 nM | 12.8 nM
10 | O=C(NC1CCOc2cc(-c3ccc(C4CCOCC4)cc3)ccc21)O[C@@H]1CN2CCC1CC2 (stereo partly drawn) [Example 73, (S)-quinuclidin-3-yl (7-(4-(tetrahydro-2H-pyran-4-yl)phenyl)chroman-4-yl)carbamate] | 1.47 nM | 28.2 nM
11 | CN1C(=O)COc2ccc(-c3ccc4c(c3)OCCC4NC(=O)O[C@@H]3CN4CCC3CC4)cc21 (stereo partly drawn) [Example 74, (S)-quinuclidin-3-yl (7-(4-methyl-3-oxo-3,4-dihydro-2H-benzo[b][1,4]oxazin-6-yl)chroman-4-yl)carbamate] | 5.03 nM | 44.3 nM
12 | Cc1cc(-c2ccc3c(c2)OCCC3NC(=O)O[C@@H]2CN3CCC2CC3)ccc1N1CCOCC1 (stereo partly drawn) [Example 75, (S)-quinuclidin-3-yl (7-(3-methyl-4-morpholinophenyl)chroman-4-yl)carbamate] | 2.44 nM | 23.6 nM
13 | O=C(NC1CCOc2cc(-c3ccc(N4CCOCC4)c(Cl)c3)ccc21)O[C@@H]1CN2CCC1CC2 (stereo partly drawn) [Example 76, (S)-quinuclidin-3-yl (7-(3-chloro-4-morpholinophenyl)chroman-4-yl)carbamate] | 1.94 nM | 29.2 nM
14 | O=C(NC1CCOc2cc(-c3ccc(N4CCOCC4)c(F)c3)ccc21)O[C@@H]1CN2CCC1CC2 (stereo partly drawn) [Example 77, (S)-quinuclidin-3-yl (7-(3-fluoro-4-morpholinophenyl)chroman-4-yl)carbamate] | 3.33 nM | 28.7 nM
15 | Cc1ccc(-c2ccc3c(c2)OCCC3NC(=O)O[C@@H]2CN3CCC2CC3)cc1C#N (stereo partly drawn) [Example 78, (S)-quinuclidin-3-yl (7-(3-cyano-4-methylphenyl)chroman-4-yl)carbamate] | 1.26 nM | 27.3 nM
16 | COc1cncc(-c2ccc3c(c2)OCCC3NC(=O)O[C@@H]2CN3CCC2CC3)c1 (stereo partly drawn) [Example 79, (S)-quinuclidin-3-yl (7-(5-methoxypyridin-3-yl)chroman-4-yl)carbamate] | 2.57 nM | 33.4 nM

Row | SMILES | IC50 [1] | IC50 [2]
17 | COc1ncc(-c2ccc3c(c2)OCCC3NC(=O)O[C@@H]2CN3CCC2CC3)cc1Cl (stereo partly drawn) [Example 80, (S)-quinuclidin-3-yl (7-(5-chloro-6-methoxypyridin-3-yl)chroman-4-yl)carbamate] | 5.75 nM | 44.2 nM
18 | O=C(NC1CCOc2cc(-c3ccc(OCC4CC4)nc3)ccc21)O[C@@H]1CN2CCC1CC2 (stereo partly drawn) [Example 81, (S)-quinuclidin-3-yl (7-(6-(cyclopropylmethoxy)pyridin-3-yl)chroman-4-yl)carbamate] | 0.94 nM | 14.8 nM
19 | CC(C)Oc1ccc(-c2ccc3c(c2)OCCC3NC(=O)O[C@@H]2CN3CCC2CC3)cc1Cl (stereo partly drawn) [Example 82, (S)-quinuclidin-3-yl (7-(3-chloro-4-isopropoxyphenyl)chroman-4-yl)carbamate] | 2.86 nM | 7 nM
20 | COc1ccc(-c2ccc3c(c2)OCCC3NC(=O)O[C@@H]2CN3CCC2CC3)cc1C(F)(F)F (stereo partly drawn) [Example 83, (S)-quinuclidin-3-yl (7-(4-methoxy-3-(trifluoromethyl)phenyl)chroman-4-yl)carbamate] | 3.93 nM | 19.6 nM
21 | COc1cccc(OC)c1-c1ccc2c(c1)OCCC2NC(=O)O[C@@H]1CN2CCC1CC2 (stereo partly drawn) [Example 84, (S)-quinuclidin-3-yl (7-(2,6-dimethoxyphenyl)chroman-4-yl)carbamate] | 2.79 nM | 7.18 nM
22 | O=C(NC1CCOc2ccc(-c3ccc(F)cc3)cc21)O[C@@H]1CN2CCC1CC2 (stereo partly drawn) [Example 85, (S)-quinuclidin-3-yl (6-(4-fluorophenyl)chroman-4-yl)carbamate] | 9.67 nM | 222 nM
23 | O=C(NC1CCOc2ccc(-c3cccc(F)c3)cc21)O[C@@H]1CN2CCC1CC2 (stereo partly drawn) [Example 86, (S)-quinuclidin-3-yl (6-(3-fluorophenyl)chroman-4-yl)carbamate] | 9.68 nM | 181 nM
24 | O=C(NC1CCOc2ccc(-c3ccccc3F)cc21)O[C@@H]1CN2CCC1CC2 (stereo partly drawn) [Example 87, (S)-quinuclidin-3-yl (6-(2-fluorophenyl)chroman-4-yl)carbamate] | 3.57 nM | 98.7 nM
25 | O=C(NC1CCOc2ccc(-c3ccc(Cl)cc3)cc21)O[C@@H]1CN2CCC1CC2 (stereo partly drawn) [Example 88, (S)-quinuclidin-3-yl (6-(4-chlorophenyl)chroman-4-yl)carbamate] | 9.41 nM | 160 nM
26 | O=C(NC1CCOc2ccc(-c3cccc(Cl)c3)cc21)O[C@@H]1CN2CCC1CC2 (stereo partly drawn) [Example 89, (S)-quinuclidin-3-yl (6-(3-chlorophenyl)chroman-4-yl)carbamate] | 6.63 nM | 216 nM
27 | O=C(NC1CCOc2ccc(-c3ccccc3Cl)cc21)O[C@@H]1CN2CCC1CC2 (stereo partly drawn) [Example 90, (S)-quinuclidin-3-yl (6-(2-chlorophenyl)chroman-4-yl)carbamate] | 4.27 nM | 141 nM
28 | O=C(NC1CCOc2ccc(-c3ccc(C(F)(F)F)cc3)cc21)O[C@@H]1CN2CCC1CC2 (stereo partly drawn) [Example 91, (S)-quinuclidin-3-yl (6-(4-(trifluoromethyl)phenyl)chroman-4-yl)carbamate] | 5.38 nM | 171 nM
29 | O=C(NC1CCOc2ccc(-c3cccc(C(F)(F)F)c3)cc21)O[C@@H]1CN2CCC1CC2 (stereo partly drawn) [Example 92, (S)-quinuclidin-3-yl (6-(3-(trifluoromethyl)phenyl)chroman-4-yl)carbamate] | 29.6 nM | 495 nM
30 | O=C(NC1CCOc2ccc(-c3ccccc3C(F)(F)F)cc21)O[C@@H]1CN2CCC1CC2 (stereo partly drawn) [Example 93, (S)-quinuclidin-3-yl (6-(2-(trifluoromethyl)phenyl)chroman-4-yl)carbamate] | 4.25 nM | 79.8 nM
31 | O=C(NC1CCOc2ccc(-c3ccc(OC(F)(F)F)cc3)cc21)O[C@@H]1CN2CCC1CC2 (stereo partly drawn) [Example 94, (S)-quinuclidin-3-yl (6-(4-(trifluoromethoxy)phenyl)chroman-4-yl)carbamate] | 8.13 nM | 408 nM
32 | O=C(NC1CCOc2ccc(-c3cccc(OC(F)(F)F)c3)cc21)O[C@@H]1CN2CCC1CC2 (stereo partly drawn) [Example 95, (S)-quinuclidin-3-yl (6-(3-(trifluoromethoxy)phenyl)chroman-4-yl)carbamate] | 19.8 nM | 513 nM
